# Source: the supplement of paper PMC10307832
# Experiments:
# Assay in all cases: relative viability (nuclei count vs DMSO), 5 days (fraction); higher = more cells survive
# BEN = test system: BEN
# Method in brief: (§1)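 For relative viability, nuclei counts in treated wells were divided by those in vehicle wells. Lung cancer cell lines had been pin-tool dosed in 1536-well plates the day after seeding and cultured for 5 days, then fixed and stained in one step (final 0.05% Triton X-100, 1% formaldehyde, 1 ug/ml Hoechst) and imaged at 4×. Doses were one drug alone or a fixed anchor-drug dose plus five library-drug doses (not always all listed) in √10 steps, and values are duplicate-plate medians.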
# CAL-12T = test system: CAL-12T
# Method in brief: as §1
# NCI-H2228 = test system: NCI-H2228
# Method in brief: as §1
# SK-LU-1 = test system: SK-LU-1
# Method in brief: as §1
# 201T = test system: 201T
# Method in brief: as §1
# LCLC-97TM1 = test system: LCLC-97TM1
# Method in brief: as §1
# NCI-H2405 = test system: NCI-H2405
# Method in brief: as §1
# NCI-H727 = test system: NCI-H727
# Method in brief: as §1
# NCI-H1793 = test system: NCI-H1793
# Method in brief: as §1
# NCI-H1437 = test system: NCI-H1437
# Method in brief: as §1
# NCI-H3122 = test system: NCI-H3122
# Method in brief: as §1
# LXF-289 = test system: LXF-289
# Method in brief: as §1
# NCI-H647 = test system: NCI-H647
# Method in brief: as §1
# RERF-LC-KJ = test system: RERF-LC-KJ
# Method in brief: as §1
# NCI-H2087 = test system: NCI-H2087
# Method in brief: as §1
# NCI-H1792 = test system: NCI-H1792
# Method in brief: as §1
# NCI-H1944 = test system: NCI-H1944
# Method in brief: as §1
# NCI-H1650 = test system: NCI-H1650
# Method in brief: as §1
# LCLC-103H = test system: LCLC-103H
# Method in brief: as §1
# NCI-H1395 = test system: NCI-H1395
# Method in brief: as §1
# HCC-827 = test system: HCC-827
# Method in brief: as §1
# NCI-H322M = test system: NCI-H322M
# Method in brief: as §1
smiles,measurement,setting,value
Nc1ccn([C@@H]2O[C@H](CO)[C@@H](O)[C@@H]2O)c(=O)n1 [Cytarabine] + CC(=O)Nc1cccc(-n2c(=O)n(C3CC3)c(=O)c3c(Nc4ccc(I)cc4F)n(C)c(=O)c(C)c32)c1 [Trametinib] (partner 0.02 µM),relative viability,BEN; first compound 0.005 µM,1.08
same,relative viability,BEN; first compound 0.01581 µM,0.897
same,relative viability,BEN; first compound 0.05 µM,0.781
same,relative viability,BEN; first compound 0.1581 µM,0.553
same,relative viability,BEN; first compound 0.5 µM,0.372
same,relative viability,CAL-12T; first compound 0.005 µM,0.411
same,relative viability,CAL-12T; first compound 0.01581 µM,0.318
same,relative viability,CAL-12T; first compound 0.05 µM,0.326
same,relative viability,CAL-12T; first compound 0.1581 µM,0.22
same,relative viability,CAL-12T; first compound 0.5 µM,0.22
same,relative viability,NCI-H2228; first compound 0.005 µM,0.288
same,relative viability,NCI-H2228; first compound 0.01581 µM,0.171
same,relative viability,NCI-H2228; first compound 0.05 µM,0.158
same,relative viability,NCI-H2228; first compound 0.1581 µM,0.127
same,relative viability,NCI-H2228; first compound 0.5 µM,0.116
same,relative viability,SK-LU-1; first compound 0.005 µM,0.416
same,relative viability,SK-LU-1; first compound 0.01581 µM,0.454
same,relative viability,SK-LU-1; first compound 0.05 µM,0.423
same,relative viability,SK-LU-1; first compound 0.1581 µM,0.356
same,relative viability,SK-LU-1; first compound 0.5 µM,0.303
same,relative viability,201T; first compound 0.005 µM,0.728
same,relative viability,201T; first compound 0.01581 µM,0.724
same,relative viability,201T; first compound 0.05 µM,0.76
same,relative viability,201T; first compound 0.1581 µM,0.709
same,relative viability,201T; first compound 0.5 µM,0.694
same,relative viability,LCLC-97TM1; first compound 0.005 µM,0.191
same,relative viability,LCLC-97TM1; first compound 0.01581 µM,0.159
same,relative viability,LCLC-97TM1; first compound 0.05 µM,0.173
same,relative viability,LCLC-97TM1; first compound 0.1581 µM,0.136
same,relative viability,LCLC-97TM1; first compound 0.5 µM,0.135
same,relative viability,NCI-H2405; first compound 0.005 µM,0.648
same,relative viability,NCI-H2405; first compound 0.01581 µM,0.53
same,relative viability,NCI-H2405; first compound 0.05 µM,0.464
same,relative viability,NCI-H2405; first compound 0.1581 µM,0.401
same,relative viability,NCI-H2405; first compound 0.5 µM,0.317
same,relative viability,NCI-H727; first compound 0.005 µM,0.348
same,relative viability,NCI-H727; first compound 0.01581 µM,0.374
same,relative viability,NCI-H727; first compound 0.05 µM,0.354
same,relative viability,NCI-H727; first compound 0.1581 µM,0.336
same,relative viability,NCI-H727; first compound 0.5 µM,0.329
same,relative viability,NCI-H1793; first compound 0.005 µM,0.489
same,relative viability,NCI-H1793; first compound 0.01581 µM,0.405
same,relative viability,NCI-H1793; first compound 0.05 µM,0.398
same,relative viability,NCI-H1793; first compound 0.1581 µM,0.266
same,relative viability,NCI-H1793; first compound 0.5 µM,0.258
same,relative viability,NCI-H1437; first compound 0.005 µM,0.503
same,relative viability,NCI-H1437; first compound 0.01581 µM,0.406
same,relative viability,NCI-H1437; first compound 0.05 µM,0.416
same,relative viability,NCI-H1437; first compound 0.1581 µM,0.238
same,relative viability,NCI-H1437; first compound 0.5 µM,0.178
same,relative viability,NCI-H3122; first compound 0.005 µM,0.221
same,relative viability,NCI-H3122; first compound 0.01581 µM,0.252
same,relative viability,NCI-H3122; first compound 0.05 µM,0.187
same,relative viability,NCI-H3122; first compound 0.1581 µM,0.177
same,relative viability,NCI-H3122; first compound 0.5 µM,0.139
same,relative viability,LXF-289; first compound 0.005 µM,0.632
same,relative viability,LXF-289; first compound 0.01581 µM,0.573
same,relative viability,LXF-289; first compound 0.05 µM,0.62
same,relative viability,LXF-289; first compound 0.1581 µM,0.428
same,relative viability,LXF-289; first compound 0.5 µM,0.287
same,relative viability,NCI-H647; first compound 0.005 µM,0.449
same,relative viability,NCI-H647; first compound 0.01581 µM,0.317
same,relative viability,NCI-H647; first compound 0.05 µM,0.22
same,relative viability,NCI-H647; first compound 0.1581 µM,0.0976
same,relative viability,NCI-H647; first compound 0.5 µM,0.0793
same,relative viability,RERF-LC-KJ; first compound 0.005 µM,0.797
same,relative viability,RERF-LC-KJ; first compound 0.01581 µM,0.862
same,relative viability,RERF-LC-KJ; first compound 0.05 µM,0.716
same,relative viability,RERF-LC-KJ; first compound 0.1581 µM,0.498
same,relative viability,RERF-LC-KJ; first compound 0.5 µM,0.402
same,relative viability,NCI-H2087; first compound 0.005 µM,0.187
same,relative viability,NCI-H2087; first compound 0.01581 µM,0.221
same,relative viability,NCI-H2087; first compound 0.05 µM,0.187
same,relative viability,NCI-H2087; first compound 0.1581 µM,0.139
same,relative viability,NCI-H2087; first compound 0.5 µM,0.126
same,relative viability,NCI-H1792; first compound 0.01581 µM,0.438
same,relative viability,NCI-H1792; first compound 0.05 µM,0.356
same,relative viability,NCI-H1792; first compound 0.1581 µM,0.213
same,relative viability,NCI-H1792; first compound 0.5 µM,0.118
same,relative viability,NCI-H1944; first compound 0.005 µM,0.36
same,relative viability,NCI-H1944; first compound 0.01581 µM,0.287
same,relative viability,NCI-H1944; first compound 0.05 µM,0.3
same,relative viability,NCI-H1944; first compound 0.1581 µM,0.168
same,relative viability,NCI-H1944; first compound 0.5 µM,0.169
same,relative viability,NCI-H1650; first compound 0.005 µM,0.446
same,relative viability,NCI-H1650; first compound 0.01581 µM,0.419
same,relative viability,NCI-H1650; first compound 0.05 µM,0.452
same,relative viability,NCI-H1650; first compound 0.1581 µM,0.24
same,relative viability,NCI-H1650; first compound 0.5 µM,0.158
same,relative viability,LCLC-103H; first compound 0.005 µM,0.692
same,relative viability,LCLC-103H; first compound 0.01581 µM,0.687
same,relative viability,LCLC-103H; first compound 0.05 µM,0.671
same,relative viability,LCLC-103H; first compound 0.1581 µM,0.682
same,relative viability,LCLC-103H; first compound 0.5 µM,0.742
same,relative viability,NCI-H1395; first compound 0.005 µM,1.06
same,relative viability,NCI-H1395; first compound 0.01581 µM,1.02
same,relative viability,NCI-H1395; first compound 0.05 µM,0.591
same,relative viability,NCI-H1395; first compound 0.1581 µM,0.524
same,relative viability,NCI-H1395; first compound 0.5 µM,0.436
same,relative viability,HCC-827; first compound 0.005 µM,0.362
same,relative viability,HCC-827; first compound 0.01581 µM,0.313
same,relative viability,HCC-827; first compound 0.05 µM,0.239
same,relative viability,HCC-827; first compound 0.1581 µM,0.188
same,relative viability,HCC-827; first compound 0.5 µM,0.154
same,relative viability,NCI-H322M; first compound 0.005 µM,0.484
same,relative viability,NCI-H322M; first compound 0.01581 µM,0.456
same,relative viability,NCI-H322M; first compound 0.05 µM,0.441
same,relative viability,NCI-H322M; first compound 0.1581 µM,0.429
same,relative viability,NCI-H322M; first compound 0.5 µM,0.402
